Measurements as given in patent US12098159B2, “Solid forms of substituted benzoxaborole and compositions thereof” (5Metis, Inc., priority 2018, dated 2024).

Assays:
Type in all cases: physicochemical
[1] = Dynamic vapor sorption (DVS) of Type A
Source text: After preparation by the method described in Example 1, the starting material was characterized by X-ray powder diffraction (XRPD), thermo gravimetric analysis (TGA), differential scanning calorimetry (DSC), dynamic vapor sorption (DVS), high performance liquid chromatography (HPLC), and ^1H solution nuclear magnetic resonance (^1H NMR).
(§1) This difference was postulated to be caused by preferred orientation, since the morphology of Type A starting material was rod-like. A two-stage weight loss of 0.5% up to 100° C. and 10.0% from 100° C. to 160° C. was observed on the TGA curve. […] (onset temperature). The DVS isotherm plot of Type A was collected at 25° C. between 0 and 95% RH.

[2] = TGA weight loss (ramp, cycle and isothermal TGA)
Experimental: TGA data were collected using a TA Q5000/5500 TGA from TA Instruments. DSC was performed using a TA Q2000/2500 DSC from TA Instruments.
as §1
The results of VT-XRPD and heating experiment preliminarily confirmed the dehydration reaction. However, the theoretical weight loss of dehydration was calculated to be 5.4%, which was not consistent with the observed TGA weight loss of 10.0%. To further explain the difference on weight loss, the TGA data of Type A were re-visited. The results in FIG. 23B indicate that there might be 2 events involved in the TGA weight loss from 100° C. to 160° C., one of which is the dehydration of (I) (the theoretical weight loss of dehydration was close to the TGA weight loss up to 128° C.), while the other may be the complete decomposition or sublimation of the dehydrated product (if it's partial decomposition, the sample after heated should not convert back to (I) upon exposure to air).
Cycle TGA was conducted by heating Type A to 160° C. and cooling to 50° C. (with N2 purge, without exposure to air), followed by re-heating to 160° C. […] Isothermal TGA was conducted by heating Type A to 160° C. and isothermal at 160° C. for 0.5 hr. A weight loss of >20% was observed during the isothermal stage FIG. 24B, which was postulated to be decomposition/sublimation.

[3] = VT-XRPD and heating experiments: dehydration of (I) to (II) and conversion back
Experimental: The compound of formula (II) can be prepared by heating the compound of formula (I) under vacuum or by exposing the compound of formula (I) to dehydrating conditions.
To confirm this hypothesis, variable-temperature XRPD (VT-XRPD) and heating experiments were performed. […] The ^1H NMR results in FIG. 22B show no difference before and after heating, likely because the dehydrated product converted back to (I) after being exposed to residual water in DMSO-d6. TGA was also performed by heating (I) to 160° C. and cooling to room temperature, followed by re-heating to 160° C. after placed being placed under ambient conditions overnight. […] All the results were consistent with the hypothesis that dehydration and hydration reactions would occur during heating and exposure to air, respectively.

Structure (SMILES)	water up-take (DVS) ([1]; 25° C./80% RH) [%]	form change after the DVS test (XRPD) ([1]; DVS at 25° C. between 0 and 95% RH)	TGA weight loss ([2]; from 100° C. to 160° C.) [%]	cycle TGA weight loss on the re-heating curve ([2]; heated to 160° C., cooled to 50° C. with N2 purge, re-heated, up to 150° C.) [%]	isothermal TGA weight loss ([2]; isothermal at 160° C. for 0.5 hr) [%]	Wt Loss on TGA (%, up to 100° C.) ([2]; up to 100° C.) [%]	XRPD after heating experiment ([3]; heated to 160° C. and cooled to RT, exposed to air)	XRPD pattern of dehydrated product after exposure to air ([3]; after heating to 140° C. with N2 purge, exposed in air for 3 hrs)	behaviour on exposure to water ([3]; exposed to water)
OB1OCc2cc(Cl)ccc21 [(I), 5-chlorobenzo[c][1,2]oxaborol-1(3H)-ol]	0.1	no form change was observed	10.0	1.3	> 20	0.5	partial conversion to the dehydrated product (II)	–	–
Clc1ccc2c(c1)COB2OB1OCc2cc(Cl)ccc21 [(II), 1,1′-oxybis(5-chloro-1,3-dihydrobenzo[c][1,2]oxaborole)]	–	–	–	–	–	–	–	converted back to Type A	reverts to the compound of formula (I)
